Measurements published in PubChem BioAssay (NCI).
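Where inhibition never reached the appropriate level, the endpoint shown equals the highest concentration tested. Otherwise, values were interpolated linearly from a five-concentration, 48-hour dose response in 96-well plates. The concentration for 50% growth inhibition is given as GI50. TGI marks complete inhibition of growth.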

Key:
Assay in all cases: NCI tumour cell line growth inhibition, 48 h
P388 leukemia = tested on: P388 leukemia
P388/ADR leukemia = tested on: P388/ADR leukemia
SN12K1 renal = tested on: SN12K1 renal
RXF-631 renal = tested on: RXF-631 renal

COC(=O)[C@@H]1c2cc3c(c(O)c2[C@@H](OC)C[C@@]1(C)O)C(=O)c1c(O)cc2c(c1C3=O)OC1O[C@@]2(C)[C@H](O)[C@@H](N(C)C)[C@@H]1O
TGI (P388 leukemia): 2.36 µM | TGI (P388/ADR leukemia): 15 µM | TGI (SN12K1 renal): 1.41 µM

CN(C)CCNCc1c2ccccc2c(CNCCN(C)C)c2ccccc12
TGI (P388 leukemia): > 56.2 µM | TGI (P388/ADR leukemia): > 100 µM | TGI (SN12K1 renal): 67.6 µM

Cc1cc2c(c3oc(C(O)(CO)C4CO4)cc(=O)c13)C(=O)c1c(O)cccc1C2=O (stereo not given)
TGI (RXF-631 renal): > 100 µM

C=C(C)C1Cc2c(cc(O)c3c(=O)c4ccccc4n(C)c23)O1 (stereo not given)
TGI (RXF-631 renal): > 100 µM

O=[N+]([O-])c1ccc(NC2OCC(O)C(O)C2O)cc1 (stereo not given)
TGI (RXF-631 renal): > 100 µM

[Cl-].[Rh+3].c1ccc(-c2ccnc3c2ccc2c(-c4ccccc4)ccnc23)cc1.c1ccc(-c2ccnc3c2ccc2c(-c4ccccc4)ccnc23)cc1.c1ccc(-c2ccnc3c2ccc2c(-c4ccccc4)ccnc23)cc1
GI50 (P388 leukemia): 24.7 µM | TGI (P388 leukemia): > 71 µM | GI50 (P388/ADR leukemia): 23.7 µM | TGI (P388/ADR leukemia): > 100 µM | GI50 (SN12K1 renal): 29.7 µM | TGI (SN12K1 renal): > 87.2 µM
